Results taken from patent US4634707A, “5-Pyrimidinecarboxamides and treatment of leukemia and tumors therewith” (Uniroyal Chemical Company, priority 1984, dated 1987).

Experiments:
[1] = test system: Ehrlich Ascites carcinoma; conditions: Ehrlich Ascites carcinoma in mice; Chem. & Pharm. Bull. (Tokyo) 8, 1021-1028 (1960); cited from earlier work
L1210 leukemia = assay: NCI 3LE31, i.p.-implanted L1210 lymphoid leukemia; format: in vivo, DBA/2 mice; conditions: for response vs control in vivo at 25 mg/kg / response vs control in vivo at 50 mg/kg / response vs control in vivo at 100 mg/kg / response vs control in vivo at 200 mg/kg: Mus musculus, L1210, ip, read-out: T/C % (survival time treated/control)
Method: The spectrum of antitumor activity of the compound of Example 1 was determined employing a number of standard National Cancer Institute (NCI) protocols. The antitumor activity was determined in vivo against several different tumors, employing various treatment schedules and routes of administration.
Samples of the test compounds of Examples 1-10 and a number of structurally-related control compounds were tested in accordance with National Cancer Institute test protocol 3LE31 (NCI Protocol 1.100, Cancer Chemotherapy Reports Part 3, Vol. 3, No. 2, September 1972) to determine the effects of the several compounds on i.p.-implanted L1210 leukemia (J. Nat'l. Cancer Inst. 13(5):1328, 1953). Each test involved implantation of the leukemia cells in six DBA/2 mice, one sex per experiment, the male mice weighing a minimum of 18 grams and the female mice weighing a minimum of 17 grams, and all of the test animals being within a three gram weight range. The test compound was administered by i.p. injections, in 0.1 ml. doses of diluted ascitic fluid (10^5 cells per dose), commencing one day after the tumor implant and continuing daily for nine days.
The test animals were weighed and survivors recorded on a regular basis during a thirty day test period. The ratio of survival time for the treated and control animals (T/C) was determined as a percentage.
The tests were carried out at varying dosage levels and with varying numbers of repetitions, depending upon the results obtained with each test compoud. […] A reproducible T/C of 150% or higher is considered significant activity.
The number of mice "cured", viz., those surviving from each animal test group after the thirty day test period, is indicated in parenthesis following the T/C percentage data in Table III below: […]

[2] = 25 mg/kg i.p. daily for nine days
[3] = 50 mg/kg i.p. daily for nine days
[4] = 100 mg/kg i.p. daily for nine days
[5] = 200 mg/kg i.p. daily for nine days

For O=C(Nc1ccccc1)c1c(O)n(-c2ccccc2)c(=O)[nH]c1=O [1-phenyl derivative], the “anti-tumor activity (in words)” value [1] is given as “neither of its 1-methyl or 1-phenyl-substituted derivatives, exhibited anti-tumor activity”.

For O=C1NC(=O)C(C(=O)Nc2ccccc2)C(=O)N1 [5-phenylcarbamoylbarbituric acid], the “anti-tumor activity (in words)” value [1] is given as “exhibited anti-tumor activity”.

In the case of Cn1c(O)c(C(=O)Nc2ccccc2)c(=O)[nH]c1=O [1-methyl derivative], the “anti-tumor activity (in words)” value [1] is given as “neither of its 1-methyl or 1-phenyl-substituted derivatives, exhibited anti-tumor activity”.

Compound CC(C)c1cccc(C(C)C)c1NC(=O)c1c(O)n(-c2ccccc2)c(=S)n(-c2ccccc2)c1=O [Control U] has a response vs control in vivo at 25 mg/kg (L1210 leukemia; [2]) of 101%, a response vs control in vivo at 50 mg/kg (L1210 leukemia; [3]) of 100% and a response vs control in vivo at 100 mg/kg (L1210 leukemia; [4]) of 104%. It also gave a response vs control in vivo at 200 mg/kg (L1210 leukemia; [5]) of 112%.

With O=C(Nc1ccccc1F)c1c(O)[nH]c(=S)[nH]c1=O [Example 8, N-(2-fluorophenyl)-1,2,3,4-tetrahydro-6-hydroxy-4-oxo-2-thioxo-5-pyrimidinecarboxamide] the response vs control in vivo at 25 mg/kg (L1210 leukemia; [2]) was 148%, the response vs control in vivo at 50 mg/kg (L1210 leukemia; [3]) was 105% and the response vs control in vivo at 100 mg/kg (L1210 leukemia; [4]) was 128%. It also gave a response vs control in vivo at 200 mg/kg (L1210 leukemia; [5]) of 118%.

For O=C(Nc1ccccc1Cl)c1c(O)[nH]c(=S)[nH]c1=O [Example 2, N-(2-chlorophenyl)-1,2,3,4-tetrahydro-6-hydroxy-4-oxo-2-thioxo-5-pyrimidinecarboxamide], the “number of mice cured (surviving after thirty day test period)” value (L1210 leukemia; 200 mg/kg i.p. daily for nine days, six mice) was 1, the “T/C % (survival time treated/control)” value (L1210 leukemia; 400 mg/kg i.p. daily for nine days) was “Toxic” and the response vs control in vivo at 25 mg/kg (L1210 leukemia; [2]) was 106%. The response vs control in vivo at 50 mg/kg (L1210 leukemia; [3]) was 118% and the response vs control in vivo at 100 mg/kg (L1210 leukemia; [4]) was 127%.

For O=C(Nc1ccccc1)c1c(O)[nH]c(=S)n(-c2ccccc2)c1=O [Control P], the “T/C % (survival time treated/control)” value (L1210 leukemia; [2]) was 110%, the “T/C % (survival time treated/control)” value (L1210 leukemia; [3]) was 116% and the “T/C % (survival time treated/control)” value (L1210 leukemia; [4]) was “Toxic”. For the same compound, the “T/C % (survival time treated/control)” value (L1210 leukemia; [5]) was “Toxic”.

Work on O=C(Nc1cccc(F)c1)c1c(O)[nH]c(=S)[nH]c1=O [Example 4, N-(3-fluorophenyl)-1,2,3,4-tetrahydro-6-hydroxy-4-oxo-2-thioxo-5-pyrmidinecarboxamide] yielded a response vs control in vivo at 25 mg/kg (L1210 leukemia; [2]) of 114%, a response vs control in vivo at 50 mg/kg (L1210 leukemia; [3]) of 114% and a response vs control in vivo at 100 mg/kg (L1210 leukemia; [4]) of 128%. The response vs control in vivo at 200 mg/kg (L1210 leukemia; [5]) was 155%.

In the case of Cn1c(O)c(C(=O)Nc2ccccc2)c(=O)n(C)c1=S [Control L], the “T/C % (survival time treated/control)” value (L1210 leukemia; [2]) is reported as 108%, the “T/C % (survival time treated/control)” value (L1210 leukemia; [3]) is reported as “Toxic” and the “T/C % (survival time treated/control)” value (L1210 leukemia; [4]) is reported as “Toxic”. The “T/C % (survival time treated/control)” value (L1210 leukemia; [5]) was “Toxic”.
